Results: article doi:10.1101/2023.11.24.568596v1 (biorxiv, 2023)

Assays:
Details in all cases: binder
PAK1 = PAK1 (Homo sapiens, UniProt Q13153)
MST4 = MST4 (Homo sapiens, UniProt Q9P289)
MST2 = molecular target: T1, MST2 (Homo sapiens, UniProt Q13188)
T1 sequence (Q13188 1-491): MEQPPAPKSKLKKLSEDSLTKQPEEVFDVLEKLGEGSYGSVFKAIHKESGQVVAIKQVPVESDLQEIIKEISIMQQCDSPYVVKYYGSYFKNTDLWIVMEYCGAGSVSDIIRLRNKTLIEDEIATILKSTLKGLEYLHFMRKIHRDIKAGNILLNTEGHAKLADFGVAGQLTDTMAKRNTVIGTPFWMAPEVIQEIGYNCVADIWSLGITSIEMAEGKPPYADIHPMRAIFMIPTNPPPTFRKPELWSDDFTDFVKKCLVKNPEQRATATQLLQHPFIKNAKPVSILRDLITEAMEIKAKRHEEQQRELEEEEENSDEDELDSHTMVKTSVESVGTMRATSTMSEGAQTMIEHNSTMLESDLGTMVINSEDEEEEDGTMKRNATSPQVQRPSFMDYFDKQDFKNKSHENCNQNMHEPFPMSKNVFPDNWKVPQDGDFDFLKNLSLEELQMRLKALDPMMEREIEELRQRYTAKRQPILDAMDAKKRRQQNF

MST1 = molecular target: T2, MST1 (Homo sapiens, UniProt Q13043)
T2 sequence (Q13043 1-487): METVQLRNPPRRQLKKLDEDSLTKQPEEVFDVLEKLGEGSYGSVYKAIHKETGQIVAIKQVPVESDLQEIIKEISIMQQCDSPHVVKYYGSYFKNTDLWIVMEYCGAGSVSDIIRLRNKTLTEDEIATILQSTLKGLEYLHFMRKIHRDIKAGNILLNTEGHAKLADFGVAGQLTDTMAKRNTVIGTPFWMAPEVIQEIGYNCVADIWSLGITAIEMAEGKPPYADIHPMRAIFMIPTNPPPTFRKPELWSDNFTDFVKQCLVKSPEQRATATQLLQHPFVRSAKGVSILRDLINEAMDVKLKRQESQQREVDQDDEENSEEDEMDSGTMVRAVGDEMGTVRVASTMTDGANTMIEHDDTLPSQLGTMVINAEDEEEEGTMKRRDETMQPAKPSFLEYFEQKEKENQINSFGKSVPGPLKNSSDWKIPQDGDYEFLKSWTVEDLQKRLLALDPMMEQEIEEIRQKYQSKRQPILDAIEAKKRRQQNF

MST3 = MST3 (Homo sapiens, UniProt Q9Y6E0)
MST3, sequence (Q9Y6E0 whole entry): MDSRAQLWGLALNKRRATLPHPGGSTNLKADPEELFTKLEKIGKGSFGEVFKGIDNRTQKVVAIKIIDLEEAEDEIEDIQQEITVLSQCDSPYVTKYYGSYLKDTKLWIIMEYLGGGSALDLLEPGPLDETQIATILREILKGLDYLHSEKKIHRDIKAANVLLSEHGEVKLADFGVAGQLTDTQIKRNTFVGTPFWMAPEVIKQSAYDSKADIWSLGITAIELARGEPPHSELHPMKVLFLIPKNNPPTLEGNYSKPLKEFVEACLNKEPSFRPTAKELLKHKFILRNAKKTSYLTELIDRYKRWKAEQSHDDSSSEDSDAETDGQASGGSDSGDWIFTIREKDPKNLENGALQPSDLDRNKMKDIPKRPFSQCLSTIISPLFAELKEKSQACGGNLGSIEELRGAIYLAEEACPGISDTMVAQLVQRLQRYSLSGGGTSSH

SRC = SRC (Homo sapiens, UniProt P12931)
SRC, sequence (P12931 whole entry): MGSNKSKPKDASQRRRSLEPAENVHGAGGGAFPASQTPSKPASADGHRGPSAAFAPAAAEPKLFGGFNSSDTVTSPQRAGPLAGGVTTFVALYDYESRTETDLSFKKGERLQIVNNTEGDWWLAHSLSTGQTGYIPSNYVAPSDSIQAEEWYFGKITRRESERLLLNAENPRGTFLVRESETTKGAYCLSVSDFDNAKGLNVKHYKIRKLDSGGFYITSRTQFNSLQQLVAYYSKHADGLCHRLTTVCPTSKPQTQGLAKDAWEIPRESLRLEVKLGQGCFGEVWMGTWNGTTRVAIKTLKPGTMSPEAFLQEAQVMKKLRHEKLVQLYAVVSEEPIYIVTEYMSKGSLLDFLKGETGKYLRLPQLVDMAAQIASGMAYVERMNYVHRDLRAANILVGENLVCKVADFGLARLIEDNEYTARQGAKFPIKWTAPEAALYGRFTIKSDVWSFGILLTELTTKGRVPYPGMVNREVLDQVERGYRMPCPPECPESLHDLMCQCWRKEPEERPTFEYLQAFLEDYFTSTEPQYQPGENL

ULK3 = molecular target: T3, ULK3 (Homo sapiens, UniProt Q6PHR2)
T3 sequence (Q6PHR2 1-472): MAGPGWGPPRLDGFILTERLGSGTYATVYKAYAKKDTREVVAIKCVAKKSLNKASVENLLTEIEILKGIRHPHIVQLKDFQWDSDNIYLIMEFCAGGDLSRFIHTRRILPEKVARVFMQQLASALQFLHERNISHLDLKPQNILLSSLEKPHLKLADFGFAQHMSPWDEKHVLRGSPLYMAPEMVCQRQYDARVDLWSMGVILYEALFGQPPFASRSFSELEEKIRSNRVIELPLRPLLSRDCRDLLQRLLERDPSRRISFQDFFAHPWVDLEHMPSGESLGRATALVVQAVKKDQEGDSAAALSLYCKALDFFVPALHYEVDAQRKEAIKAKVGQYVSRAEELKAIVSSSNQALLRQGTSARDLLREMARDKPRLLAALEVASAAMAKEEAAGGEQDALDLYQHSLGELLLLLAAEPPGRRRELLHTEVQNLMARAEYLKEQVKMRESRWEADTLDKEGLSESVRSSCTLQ

MST4, sequence (Q9P289 whole entry): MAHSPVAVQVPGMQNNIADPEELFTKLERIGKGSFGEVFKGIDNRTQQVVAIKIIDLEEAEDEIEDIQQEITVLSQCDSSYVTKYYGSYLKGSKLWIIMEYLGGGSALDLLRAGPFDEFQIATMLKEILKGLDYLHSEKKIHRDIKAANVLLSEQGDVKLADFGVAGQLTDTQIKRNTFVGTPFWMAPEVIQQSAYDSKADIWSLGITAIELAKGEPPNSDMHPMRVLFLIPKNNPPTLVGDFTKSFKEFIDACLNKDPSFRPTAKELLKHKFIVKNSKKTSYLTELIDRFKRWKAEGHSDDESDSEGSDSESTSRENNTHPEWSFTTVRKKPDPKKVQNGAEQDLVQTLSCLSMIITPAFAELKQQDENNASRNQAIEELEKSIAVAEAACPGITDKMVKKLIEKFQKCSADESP
PAK1, sequence (Q13153 whole entry): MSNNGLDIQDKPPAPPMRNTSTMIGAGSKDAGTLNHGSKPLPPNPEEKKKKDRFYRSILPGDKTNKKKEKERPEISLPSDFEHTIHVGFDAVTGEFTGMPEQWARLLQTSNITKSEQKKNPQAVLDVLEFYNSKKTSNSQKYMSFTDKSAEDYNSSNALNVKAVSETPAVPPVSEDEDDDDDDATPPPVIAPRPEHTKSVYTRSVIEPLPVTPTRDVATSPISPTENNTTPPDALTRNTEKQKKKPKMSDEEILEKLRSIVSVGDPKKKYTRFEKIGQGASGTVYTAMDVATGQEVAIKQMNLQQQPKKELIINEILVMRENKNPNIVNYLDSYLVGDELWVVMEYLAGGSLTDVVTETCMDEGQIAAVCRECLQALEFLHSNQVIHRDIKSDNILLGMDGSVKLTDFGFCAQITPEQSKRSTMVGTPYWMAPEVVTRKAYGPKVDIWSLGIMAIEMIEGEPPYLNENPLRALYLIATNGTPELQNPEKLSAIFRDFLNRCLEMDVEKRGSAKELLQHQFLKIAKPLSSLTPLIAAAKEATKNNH

Row | SMILES | dTm PAK1 (PAK1) [°C] | dTm MST4 (MST4) [°C] | dTm MST2 (MST2) [°C] | dTm MST1 (MST1) [°C] | dTm MST3 (MST3) [°C] | ΔTm MR30 (27) (SRC) [°C] | ΔTm MR30 (27) (ULK3) [°C] | ΔTm 28 (SRC) [°C] | ΔTm 28 (ULK3) [°C] | ΔTm 29 (SRC) [°C] | ΔTm 29 (ULK3) [°C] | ΔTm 30 (SRC) [°C] | ΔTm 30 (ULK3) [°C]
1 | Cc1cccc(-c2ccc(-c3cc4cnc(NCCCN5CCCC5=O)nc4n(CCCCN)c3=O)c(Cl)c2)n1 [compound 27, MR30] | 3.6 | 7.5 | 2.2 | 1.1 | 10.6 | -0.5 | 7.3 | – | – | – | – | – | –
2 | Cc1cccc(-c2ccc(-c3cc4cnc(Nc5cc(C(F)(F)F)ccc5C)nc4n(CCCCN)c3=O)c(Cl)c2)n1 [compound 28, 8-(4-Aminobutyl)-6-(2-chloro-4-(6-methylpyridin-2-yl)phenyl)-2-((2-methyl-5-(trifluoromethyl)phenyl)amino)pyrido[2,3-d]pyrimidin-7(8H)-one] | 5.9 | 9.5 | 10.2 | 5.8 | 13.0 | – | – | 3.4 | 6.5 | – | – | – | –
3 | Cc1cccc(-c2ccc(-c3cc4cnc(NCCCN5CCNCC5)nc4n(CCCCN)c3=O)c(Cl)c2)n1 [compound 29, 8-(4-Aminobutyl)-6-(2-chloro-4-(6-methylpyridin-2-yl)phenyl)-2-((3-(piperazin-1-yl)propyl)amino)pyrido[2,3-d]pyrimidin-7(8H)-one] | 5.0 | 8.9 | 5.2 | 3.1 | 13.0 | – | – | – | – | 1.9 | 5.8 | – | –
4 | Cc1cccc(-c2ccc(-c3cc4cnc(Nc5ccc(CCCO)cc5)nc4n(CCCCN)c3=O)c(Cl)c2)n1 [compound 30, 8-(4-Aminobutyl)-6-(2-chloro-4-(6-methylpyridin-2-yl)phenyl)-2-((4-(3-hydroxypropyl)phenyl)amino)pyrido[2,3-d]pyrimidin-7(8H)-one] | 9.1 | 15.3 | 15.8 | 8.7 | 16.7 | – | – | – | – | – | – | 4.6 | 14.9
5 | Cc1cccc(-c2ccc(-c3cc4cnc(Nc5ccc(F)c(CO)c5)nc4n(CCCCN)c3=O)c(Cl)c2)n1 [compound 33, 8-(4-Aminobutyl)-6-(2-chloro-4-(6-methylpyridin-2-yl)phenyl)-2-((4-fluoro-3-(hydroxymethyl)phenyl)amino)pyrido[2,3-d]pyrimidin-7(8H)-one] | 9.3 | 14.8 | 16.0 | 8.6 | 16.9 | – | – | – | – | – | – | – | –
6 | COc1ccc(O)c(Nc2ncc3cc(-c4ccc(-c5cccc(C)n5)cc4Cl)c(=O)n(CCCCN)c3n2)c1 [compound 34, 8-(4-Aminobutyl)-6-(2-chloro-4-(6-methylpyridin-2-yl)phenyl)-2-((2-hydroxy-5-methoxy-phenyl)amino)pyrido[2,3-d]pyrimidin-7(8H)-one] | 4.5 | 8.3 | 5.4 | 3.8 | 11.0 | – | – | – | – | – | – | – | –
7 | COc1cc(N2CCOCC2)ccc1Nc1ncc2cc(-c3ccc(-c4cccc(C)n4)cc3Cl)c(=O)n(CCCCN)c2n1 [compound 35, 8-(4-Aminobutyl)-6-(2-chloro-4-(6-methylpyridin-2-yl)phenyl)-2-((2-methoxy-4-morpholino-phenyl)amino)pyrido[2,3-d]pyrimidin-7(8H)-one] | 5.0 | 9.2 | 7.5 | 4.6 | 11.0 | – | – | – | – | – | – | – | –
8 | COc1cc(N2CCN(C)CC2)ccc1Nc1ncc2cc(-c3ccc(-c4cccc(C)n4)cc3Cl)c(=O)n(CCCCN)c2n1 [compound 36, 8-(4-Aminobutyl)-6-(2-chloro-4-(6-methylpyridin-2-yl)phenyl)-2-((2-methoxy-4-(4-methylpiperazin-1-yl)phenyl)amino)pyrido[2,3-d]pyrimidin-7(8H)-one] | 8.8 | 6.7 | 7.4 | 4.0 | 13.5 | – | – | – | – | – | – | – | –
